Assay results as given in patent US9757408B2 (Hayashibara Co., Ltd., priority 2010, dated 2017).
Marks after values point to notes of the source that are not given here.

Assays:
[1] = system: mice with bacterial shock induced by LPS; experiment: LPS bacterial shock mice, survival, ANO i.v. one hour after LPS (Experiment 8); type: in vivo, BALB/c mice; details: LPS 18 mg/kg i.p., ANO 135 mg/kg i.v. at one hour after LPS
Experimental: An LPS specimen derived from E. coli ([…]), commercialized by Sigma-Aldrich Corporation, St. Louis, Mo. USA, was dissolved in PBS and intraperitoneally administered to all the seven mice in each group at a dose of 18 mg/kg body weight of LPS. […] For each group, the survival number of mice was confirmed up to 7 to 27 hours after administering LPS and determined the survival rate (%) of mice in each group.

[2] = system: IL-6 in serum of mice administered with LPS; experiment: Serum IL-6 in LPS-administered mice, ANO i.v. (Experiment 7); type: in vivo, BALB/c mice; details: LPS 18 mg/kg i.p., serum two hours after LPS
Experimental: More specifically, 18 BALB/c female mice, 9-week-old, commercialized by Japan Charles River, Tokyo, Japan, were randomly divided into three groups, six heads each. An LPS specimen derived from E. coli (055:B5), commercialized by Sigma-Aldrich Corporation, St. Louis, Mo. USA, was dissolved in physiological saline and intraperitoneally administered to all the 6 mice in respective three groups at a dose of 18 mg/kg body weight of LPS (Experiment groups 1 to 3). […] To the six mice of the remaining one group was intravenously administered PBS in a liquid volume of 0.2 mL/head simultaneously with the administration of LPS (Experiment group 1).
For the mice in each group, they were collected blood at two hours after the LPS administration, followed by assaying the level of TNF-α, IL-6, IL-10, and IL-12 in each serum and averaging the data for each group. For the assay of the level of TNF-α, the same ELISA as in Experiment 2 was used and for the assay of the level of IL-6, the same ELISA as in Experiment 3 was used. […]

## Nc1c2ncn([C@@H]3O[C@H](CO)[C@@H](O)[C@H]3O)c2nc[n+]1[O-] [ANO, adenosine N1-oxide]
[1]; 7 hours
  Survival rate (%) of mice, 7 Hours: 100%
[1]; 22 hours
  Survival rate (%) of mice, 22 Hours: 86%
[1]; 27 hours
  Survival rate (%) of mice, 27 Hours: 57%
[2]; ANO 68 mg/kg i.v.
  IL-6 Concentration: 59.1 ng/mL
[2]; ANO 135 mg/kg i.v.
  IL-6 Concentration: 46.3* ng/mL
